Data taken from paper PMC9656702, “Unveiling a New Selenocyanate as a Multitarget Candidate with Anticancer, Antileishmanial and Antibacterial Potential” (Molecules, 2022).
≈ marks a conversion by molar mass, not a printed value. Where two headings read alike, the source gives them in different places.

Key:
[1] = system: Leishmania infantum promastigotes; assay: Parasite viability MTT assay, L. infantum promastigotes; type: cell-based; conditions: 48 h
Method: (§1) The cytotoxic activities of all the derivatives against Leishmania major and Leishmania infantum promastigotes were studied by the MTT assay after exposing the parasites to five different concentrations of each compound for 48 h. Miltefosine and paromomycin, two currently available drugs for the treatment of leishmaniasis, were used as positive controls.
(§2) L. major (clone VI, MHOM/IL/80/Friendlin) and L. infantum (BCN-150) promastigotes were grown in continuous stirred M199 1X medium (Sigma, St Louis, MO, USA) at 26 °C supplemented with 25 mM HEPES (pH 7.2), 10% heat-inactivated FBS (Gibco, Gaithersburg, MD, USA), 0.1 mM adenine, 0.0005% (w/v) hemin, 0.0001% (w/v) biotin, 100 UI/mL penicillin and […] streptomycin (Gibco, Gaithersburg, MD, USA). Media were changed before each experiment to achieve exponential growth.
(§3) The antileishmanial activity was assessed by the MTT assay as previously described. Briefly, 3 × 10^6 promastigotes of both Leishmania strains were placed into a 96-well plate with supplemented M199 1X medium during their logarithmic growth phase. The parasites were treated with five increasing concentrations of the compounds ranging between 0.1 and 1000 µM at 26 °C for 48 h. At the termination point, 20 µL of MTT (5 mg/mL) was added and further incubated for 4 h. The resultant formazan crystals formed were dissolved in 80 µL of DMSO and the absorbance was measured at 550 nm on a microplate reader. IC50 values were calculated using OriginPro 8.5.1. software by nonlinear curve fitting. Miltefosine and paromomycin were used as reference drugs. Data were obtained from at least three independent experiments performed in triplicates.

S. aureus = assay: MIC and MBC assay, S. aureus; type: cell-based, Staphylococcus aureus; conditions: Gram-positive; for MIC S. aureus / MIC: 24 h at 37 °C; for MBC / MIC: Staphylococcus aureus
Method: (§4) The minimum inhibitory concentration (MIC) and the minimum bactericidal concentration (MBC) values of the selenocompounds were determined in a panel of six bacterial strains as a first approach to assess their antibacterial activity. Thus, the synthesized derivatives were tested against the Gram-negative bacteria Escherichia coli (E. coli), Klebsiella pneumoniae (K. pneumoniae) and Citrobacter freundii (C. freundii); and the Gram-positive bacteria Staphylococcus aureus (S. aureus), Streptococcus faecalis (S. faecalis), and Staphylococcus epidermidis (S. epidermidis). […]
(§5) All the selenocompounds were screened for their in vitro inhibitory activity against three Gram-negative (E. coli, K. pneumoniae and C. freundii) and three Gram-positive (S. aureus, S. faecalis and S. epidermidis) bacteria. Bacterial strains were kindly provided by the Department of Microbiology and Parasitology of the University of Navarra. The bacterial cells were grown in tryptic soy agar (TSA) plates and maintained at 4 °C.
(§6) The compounds were firstly dissolved in DMSO and serially diluted in a 96-well plate in tryptic soy broth (TSB) with eleven concentrations ranging from 400 µg/mL to 0.4 µg/mL with a final volume of 100 µL. Subsequently, 100 µL of a diluted suspension of bacterial cells with an optical density of 0.125 measured at 600 nm in TSB (inoculum of approximately 10^5 CFU/mL) was added to each well and incubated at 37 °C for 24 h. After the incubation period, each well was analyzed for the presence or absence of visual growth of bacterial cells. The lowest concentration of the test compound at which no visible growth occurred was determined as the MIC values. After incubation, 10 µL of the bacterial suspension from each well that presented antibacterial activity was added to divided TSA plates and incubated at 37 °C overnight.

HTB-54 = assay: Antiproliferative MTT assay, HTB-54 lung cancer cells; type: cell-based, human
Method: (§7) The antiproliferative activities of the cinnamyl and benzodioxyl derivatives were assessed against six human cell lines of three different types of cancer (colon, lung, and breast) using the 3-(4,5-dimethylthiazol-2-yl)-2,5-diphenyltetrazolium bromide (MTT) assay at seven concentrations for 48 h. The results are expressed as the IC50 values and are outlined in Table 1.
(§8) The cell lines were obtained from the American Type Culture Collection (ATCC). All the cancer cell lines (HT-29, HCT-116, H1299, HTB-54, MDA-MB-231 and MCF-7) and the nontumorigenic cells (184B5) were maintained in RPMI 1640 medium (Gibco), supplemented with 10% fetal bovine serum (FBS; Gibco) and 1% antibiotics (10.00 units/mL penicillin and 10.00 mg/mL streptomycin; Gibco). Cells were preserved in tissue culture flasks at 37 °C and 5% CO2. Culture medium was replaced every three days.
(§9) The cytotoxic effect of each compound was initially tested at seven different concentrations ranging between 0.5 and 100 µM in the cell lines mentioned above. The cells were seeded (1 × 10^4 cells per well) in 96-well plates and incubated at 37 °C and 5% CO2 for 24 h. After attachment, cells were treated with either dimethyl sulfoxide (DMSO) or increasing concentrations of the corresponding selenocompound for 48 h. The effect of the compounds on cell viability was determined by the MTT assay. In brief, 20 µL of MTT (5 mg/mL) was added to each well 2.5 h prior to experiment termination. At the end of the incubation, the medium was removed, and the formazan crystals were dissolved in 50 µL of DMSO. Absorbance was measured at 550 nm on a microplate reader. IC50 values were calculated using OriginPro 8.5.1. software by nonlinear curve fitting. Selectivity indexes were calculated as the ratio of the IC50 values determined for the nonmalignant and the tumoral cells in the breast cell lines (IC50 (184B5)/IC50 (MDA-MB-231) and IC50 (184B5)/IC50 (MCF-7)). Data were obtained from at least three independent experiments performed in triplicates.

MDA-MB-231 = assay: Antiproliferative MTT assay, MDA-MB-231 breast cancer cells; type: cell-based, human
Method: as §7, §8, §9

HCT-116 = assay: Antiproliferative MTT assay, HCT-116 colon cancer cells; type: cell-based, human
Method: as §7, §8, §9

C. freundii = assay: MIC and MBC assay, C. freundii; type: cell-based, Citrobacter freundii; conditions: for MIC / MBC: Citrobacter freundii; for MIC: read-out: MIC C. freundii; for MBC: read-out: MBC C. freundii
Method: as §4, §5, §6

[2] = system: Leishmania major promastigotes; assay: Parasite viability MTT assay, L. major promastigotes; type: cell-based; conditions: 48 h
Method: as §1, §2, §3

[3] = Leishmania infantum, promastigotes, MTT assay, mean ± SD, read-out: IC50 Leishmania infantum
[4] = promastigotes, MTT assay, mean ± SD, read-out: IC50 Leishmania infantum
[5] = Homo sapiens, HTB-54, MTT assay, 48 h, mean ± SD, read-out: IC50 HTB-54
[6] = Homo sapiens, MDA-MB-231, MTT assay, 48 h, mean ± SD, read-out: IC50 MDA-MB-231
[7] = Homo sapiens, HCT-116, 48 h, MTT assay, 48 h, mean ± SD, read-out: IC50 HCT-116
[8] = Leishmania major, promastigotes, MTT assay, mean ± SD, read-out: IC50 Leishmania major
[9] = promastigotes, MTT assay, mean ± SD, read-out: IC50 Leishmania major
[10] = MTT assay, 48 h, mean ± SD, read-out: IC50 HCT-116
[11] = MTT assay, 48 h, mean ± SD, read-out: IC50 HTB-54
[12] = MTT assay, 48 h, mean ± SD, read-out: IC50 MDA-MB-231

N#C[Se]Cc1ccc2c(c1)OCO2 [Compound 2a, 5-(Selenocyanatomethyl)benzo[d][1,3]dioxole]
IC50 [1, 3]: < 5 µM | IC50 [1, 4]: 3.7 ± 0.1 µM | MBC S. aureus (S. aureus): could not be obtained | MIC S. aureus (S. aureus): ≤ 25 µg/mL | MBC (S. aureus): > 200 µg/mL | MIC (S. aureus): 25 µg/mL (≈ 104 µM) | IC50 (HTB-54; [5]): 45.2 ± 8.2 µM | IC50 (MDA-MB-231; [6]): 43.8 ± 5.7 µM | melting point: 71 to 73 °C | IC50 (HCT-116; [7]): 69.7 ± 5.3 µM | MIC (C. freundii; Gram-negative, 24 h at 37 °C): 100 µg/mL (≈ 416 µM) | MBC (C. freundii; Gram-negative): 100 µg/mL (≈ 416 µM) | IC50 [2, 8]: < 5 µM | IC50 [2, 9]: 3.3 ± 0.9 µM

C(=C\c1ccccc1)/C[Se][Se]C/C=C/c1ccccc1 [Compound 1b, 1,2-Dicinnamyldiselenide]
IC50 [1, 3]: 39.4 ± 5.1 µM | MIC (S. aureus): > 200 µg/mL | IC50 (HTB-54; [5]): 50.1 ± 5.9 µM | IC50 (MDA-MB-231; [6]): 56.3 ± 5.3 µM | IC50 (HCT-116; [7]): < 40 µM | IC50 (HCT-116; [10]): 36.6 ± 6.7 µM | MIC (C. freundii; Gram-negative, 24 h at 37 °C): > 200 µg/mL | IC50 [2, 8]: 47.6 ± 16 µM

O=C(CC[Se]Cc1ccc2c(c1)OCO2)[c-]1cccc1.[Fe+2].c1cc[cH-]c1 [Compound 2c, 3-((Benzo[d][1,3]dioxol-5-ylmethyl)selanyl)-1-ferrocenylpropan-1-one]
IC50 [1, 4]: 7.2 ± 3.6 µM | MIC S. aureus (S. aureus): >200 µg/mL | IC50 (HTB-54; [11]): 29.7 ± 2.9 µM | IC50 (MDA-MB-231; [12]): 30.9 ± 1.3 µM | IC50 (HCT-116; [10]): > 100 µM | MIC C. freundii (C. freundii; Gram-negative, 24 h at 37 °C): >200 µg/mL | IC50 [2, 9]: 11.2 ± 3 µM

N#C[Se]C/C=C/c1ccccc1 [Compound 1a, (E)-(3-selenocyanatoprop-1-en-1-yl)benzene]
IC50 ([1]; Leishmania infantum, read-out: IC50 Leishmania infantum, promastigotes, MTT assay, 48 h, mean ± SD): < 5 µM | IC50 ([1]; read-out: IC50 Leishmania infantum, promastigotes, MTT assay, mean ± SD): 3.3 ± 1.8 µM | MBC (S. aureus): 50 µg/mL (≈ 225 µM) | MIC (S. aureus): 50 µg/mL (≈ 225 µM) | IC50 (HTB-54; Homo sapiens, HTB-54, 48 h, read-out: IC50 HTB-54, MTT assay, 48 h, mean ± SD): > 50 µM | IC50 (HTB-54; read-out: IC50 HTB-54, MTT assay, 48 h, mean ± SD): 58.7 ± 9 µM | IC50 (MDA-MB-231; Homo sapiens, MDA-MB-231, 48 h, read-out: IC50 MDA-MB-231, MTT assay, 48 h, mean ± SD): > 50 µM | IC50 (MDA-MB-231; read-out: IC50 MDA-MB-231, MTT assay, 48 h, mean ± SD): 71 ± 10.3 µM | melting point: 87 to 89 °C | IC50 (HCT-116; Homo sapiens, HCT-116, 48 h, read-out: IC50 HCT-116, MTT assay, 48 h, mean ± SD): > 50 µM | IC50 (HCT-116; read-out: IC50 HCT-116, MTT assay, 48 h, mean ± SD): 68.8 ± 6.3 µM | MIC (C. freundii; 24 h): 100 µg/mL (≈ 450 µM) | MBC (C. freundii): 100 µg/mL (≈ 450 µM) | IC50 ([2]; Leishmania major, read-out: IC50 Leishmania major, promastigotes, MTT assay, 48 h, mean ± SD): < 5 µM | IC50 ([2]; read-out: IC50 Leishmania major, promastigotes, MTT assay, mean ± SD): 4.6 ± 1.7 µM

O=C(CC[Se]CC=Cc1ccccc1)[c-]1cccc1.[Fe+2].c1cc[cH-]c1 [Compound 1c, 3-(Cinnamylselanyl)-1-ferrocenylpropan-1-one]
IC50 [1, 4]: 23.2 ± 10.7 µM | MIC S. aureus (S. aureus): >200 µg/mL | IC50 (HTB-54; [11]): 32.3 ± 3.2 µM | IC50 (MDA-MB-231; [12]): 32.1 ± 3 µM | IC50 (HCT-116; [10]): > 100 µM | MIC C. freundii (C. freundii; Gram-negative, 24 h at 37 °C): >200 µg/mL | IC50 [2, 9]: 25.8 ± 2.7 µM
